Paper PMC10072198, “A covalent inhibitor targeting the papain-like protease from SARS-CoV-2 inhibits viral replication” (RSC Advances, 2023)
Entries after “also recorded” stand apart in the source; their conditions may differ.

Assays:
[1] = target: PLpro from SARS-CoV-2 (Severe acute respiratory syndrome coronavirus 2, UniProt P0DTD1); experiment: Fluorescence based PLpro activity assay (R-L-R-G-G-AMC substrate); format: biochemical; settings: read-out: IC50 (PLpro inhibition)
[2] = system: SARS-CoV-2 (US/WA1/2020 isolate); experiment: SARS-CoV-2 infection of cells (dsRNA staining, RT-qPCR of viral RNA); format: cell-based; settings: for inhibition of SARS-CoV-2 replication in cells (in words): Calu-3 and/or Vero E6 cells
[3] = target: SARS-CoV-2 Mpro(3CL) (Severe acute respiratory syndrome coronavirus 2, UniProt P0DTD1); experiment: Fluorescence based Mpro(3CL) activity assay; format: biochemical
Protocol: Fluorescence based Mpro(3CL) activity assays
The ability of compounds 1, 19 and 20 to inhibit Mpro was determined using SensoLyte® 520 SARS-CoV-2 3CL Protease Activity Assay Kit (Anaspec), following the manufacturer’s instructions. Briefly, 40 µL diluted Mpro enzyme solution was added to a flat-bottom 96-well plate.
10 µL of varying concentrations of test compounds or GC 376 solution (an Mpro inhibitor) was (1 picture or pasted object on this page, not shown here) […]
(§1) subsequently added to the enzyme solution. The mixed solutions were incubated at room temperature for 20 min. 50 µL of Mpro protease substrate solution was added to each well, followed by 30 min incubation at 37 °C. The Mpro activity was detected by measuring the fluorescence emission intensity λ excitation=490 nm; λ emission=520nm.
(§2) Compound concentration µM
(§3) Fluorescence based PLpro activity assay in the presence of […] (DTT) and […]
(§4) PLpro inhibition assays were performed in the presence of 5 mM DTT and GSH to determine if […]
(§5) PLpro protease activity was measured with peptide substrate x-x-G-G-AMC (Bachem) in the presence or absence of 5 mM DTT and GSH.
(§6) PLpro was added into a black, flat-bottom 96-well plate at a final concentration of 50 nM with reaction buffer [150 mM NaCl, 20 mM HEPES, 0.1mg/mL BSA, pH 7.5] with or without 5 mM DTT […]
(§7) 0-80 µM for 20 min at room temperature. The enzyme activity assay was initiated by mixing the x-x-G-G-AMC probe at a final 50 µM and incubating for another 20 min at room temperature. The reaction was ended by adding 1 µL of aqueous citric acid. The PLpro activity was detected by measuring the fluorescence emission intensity λ excitation=360 nm; λ emission=460nm.

[4] = target: T1, PLpro (Severe acute respiratory syndrome coronavirus 2, UniProt P0DTD1); experiment: PLpro irreversibility test (pre-incubation then dilution); format: biochemical, SARS-CoV-2
Excerpt: All error bars represent the standard error of the mean for n = 3 replicates.

[5] = target: T1, PLpro; experiment: PLpro activity assay in the presence of DTT and GSH; format: biochemical, SARS-CoV-2; settings: 5 mM glutathione or 5 mM DTT
Protocol: as §1, §2, §3, §4, §5, §6, §7

[6] = in vitro; settings: human
[7] = Determination of GSH t1/2 values; settings: buffer, pH 7.4
[8] = system: SARS-CoV PLpro; settings: cited from earlier work
[9] = system: SARS-CoV2; settings: mouse, in vivo, po; cited from earlier work

## C=CS(=O)(=O)c1nc2ccccc2s1 [Compound 6]
[1]
  IC50: 1 µM

## O=C(CCl)Nc1ccc2c(c1)NC(=O)CO2 [Compound 1]
[1]
  IC50: 18 µM
[2]
  inhibition of SARS-CoV-2 replication in cells (in words): blocked SARS-CoV-2 replication in both cell lines; also recorded: inhibited viral replication in both cell lines
[2]; Severe acute respiratory syndrome coronavirus 2, Calu-3 and Vero E6 cells, 72 hours, read-out: IC50 for inhibiting viral replication
  IC50: < 20 µM
[3]
  inhibition of Mpro (in words): did not inhibit; also recorded: no interaction
[4]; 500 nM, without pre-incubation at 50 μM
  PLpro inhibition without pre-incubation: no inhibition
[4]; pre-incubated at 50 μM for 1 hour, then diluted to 500 nM
  PLpro inhibition after pre-incubation and dilution: complete inhibition
[5]
  PLpro inhibition in the presence of thiols (in words): able to inhibit PLpro

## O=C(CCl)Nc1cc2c(cc1Br)CCC(=O)N2 [Compound 20]
[1]
  IC50: 6 µM
[2]
  inhibition of SARS-CoV-2 replication in cells (in words): no inhibitory activity against SARS-CoV-2; also recorded: did not inhibit viral replication
[3]
  inhibition of Mpro (in words): no interaction

## O=C1COc2cc([N+](=O)[O-])c(NC(=O)CCl)cc2N1 [Compound 19]
[1]
  IC50: 5 µM
[2]
  inhibition of SARS-CoV-2 replication in cells (in words): no inhibitory activity against SARS-CoV-2; also recorded: did not inhibit viral replication
[3]
  inhibition of Mpro (in words): no interaction

## O=C(CCl)Nc1ncc([N+](=O)[O-])s1 [Compound 2]
[1]
  IC50: 13 µM

## Cn1ncc(C(=O)CCl)n1 [Compound 3]
[1]
  IC50: 0.3 µM
[2]
  inhibition of SARS-CoV-2 replication in cells (in words): not effective in cells
[6]
  CC50: 62.5 µM

## O=C(NCCc1ccc(F)cc1)n1ccnc1 [Compound 4]
[1]
  IC50: 2.5 µM
[6]
  CC50: > 500 µM
[7]
  half-life at 0.05 mM: 13.4 min

## O=S(=O)(F)c1cncc(Cl)n1 [Compound 5]
[1]
  IC50: 1.7 µM
[6]
  CC50: > 500 µM

## Cc1ccc(N)cc1C(=O)N[C@H](C)c1cccc2ccccc12 [GRL-0617]
[8]
  IC50: […]
[9]
  antiviral activity against SARS-CoV2 in mice: moderate antiviral activity
